The results in this text go back to BindingDB's records for doi:10.1021/jm0500875 (Pfizer, 2005).

Each structure is given as a SMILES string. Where a name gives a salt, the structure may show the parent alone. A value given as a limit tells only on which side of the number the result lay.

Holding throughout (assay): Enzyme Inhibition Assay
In test [1] the target is Matrix metalloproteinase-9 (Homo sapiens, UniProt P14780). How it is done:
(§1) Inhibitors were assayed against purified hMMP-1, hMMP-2, hMMP-3, hMMP-8, hMMP-9, and hMMP-13 using an enzyme assay based on cleavage of the quenched fluorogenic peptide substrate. The increase in fluorescence due to cleavage of the substrate was measured with a fluorescence microplate reader. The Ki values were calculated by nonlinear regression analysis using the percent inhibition, and Km values of the substrates for each MMP.

Test [2] deals with 72 kDa type IV collagenase (Homo sapiens, UniProt P08253). How it is done: as §1
Sequence of 72 kDa type IV collagenase (P08253 whole entry): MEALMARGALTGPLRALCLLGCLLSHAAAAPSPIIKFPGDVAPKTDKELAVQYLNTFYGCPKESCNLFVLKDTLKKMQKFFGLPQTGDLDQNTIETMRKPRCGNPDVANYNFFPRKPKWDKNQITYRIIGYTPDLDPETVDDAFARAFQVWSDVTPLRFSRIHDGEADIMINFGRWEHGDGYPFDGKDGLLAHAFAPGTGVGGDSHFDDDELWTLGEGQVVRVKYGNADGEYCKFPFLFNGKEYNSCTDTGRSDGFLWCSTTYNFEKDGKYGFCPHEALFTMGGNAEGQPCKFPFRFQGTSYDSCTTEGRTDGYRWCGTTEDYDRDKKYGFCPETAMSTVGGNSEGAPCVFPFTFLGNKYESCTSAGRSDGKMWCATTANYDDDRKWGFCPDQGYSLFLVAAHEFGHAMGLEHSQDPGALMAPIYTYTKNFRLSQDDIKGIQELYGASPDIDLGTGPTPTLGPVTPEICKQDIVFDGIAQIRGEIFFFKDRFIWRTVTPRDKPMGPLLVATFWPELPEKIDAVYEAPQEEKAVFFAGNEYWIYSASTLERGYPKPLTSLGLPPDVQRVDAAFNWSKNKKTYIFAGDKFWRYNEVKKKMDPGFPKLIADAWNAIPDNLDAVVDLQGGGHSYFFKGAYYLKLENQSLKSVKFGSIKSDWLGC
The target of a further test is Stromelysin-1 (Homo sapiens, UniProt P08254). How it is done: as §1
Sequence of Stromelysin-1 (P08254 whole entry): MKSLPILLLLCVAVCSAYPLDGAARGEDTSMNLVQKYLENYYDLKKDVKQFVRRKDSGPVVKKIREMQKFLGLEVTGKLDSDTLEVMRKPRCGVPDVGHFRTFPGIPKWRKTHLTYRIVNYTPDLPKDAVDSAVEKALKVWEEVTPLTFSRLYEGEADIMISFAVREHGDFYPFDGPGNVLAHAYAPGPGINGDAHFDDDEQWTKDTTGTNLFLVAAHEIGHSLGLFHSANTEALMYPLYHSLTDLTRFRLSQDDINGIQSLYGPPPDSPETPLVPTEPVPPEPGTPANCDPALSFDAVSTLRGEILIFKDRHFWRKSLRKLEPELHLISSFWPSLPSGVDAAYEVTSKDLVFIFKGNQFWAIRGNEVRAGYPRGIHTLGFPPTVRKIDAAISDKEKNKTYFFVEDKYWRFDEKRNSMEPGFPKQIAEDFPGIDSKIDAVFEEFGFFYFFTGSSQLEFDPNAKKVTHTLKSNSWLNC
The target in the next test is Collagenase 3 (Homo sapiens, UniProt P45452). How it is done:
as §1

Another test concerns the target T1, Interstitial collagenase (Homo sapiens, UniProt P03956).
T1 sequence (P03956 whole entry): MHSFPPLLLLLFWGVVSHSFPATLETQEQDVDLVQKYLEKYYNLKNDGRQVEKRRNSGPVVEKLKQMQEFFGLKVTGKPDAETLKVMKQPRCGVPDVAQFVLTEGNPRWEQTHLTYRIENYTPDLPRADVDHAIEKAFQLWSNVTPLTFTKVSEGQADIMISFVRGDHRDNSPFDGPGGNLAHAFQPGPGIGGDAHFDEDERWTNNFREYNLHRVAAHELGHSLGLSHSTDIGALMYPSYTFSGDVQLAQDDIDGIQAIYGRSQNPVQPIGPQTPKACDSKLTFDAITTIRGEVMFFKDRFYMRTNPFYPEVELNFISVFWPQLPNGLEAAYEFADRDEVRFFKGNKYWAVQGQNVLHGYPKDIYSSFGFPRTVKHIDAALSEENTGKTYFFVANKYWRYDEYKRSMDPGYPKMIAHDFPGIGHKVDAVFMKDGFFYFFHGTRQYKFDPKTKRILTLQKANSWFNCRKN
How it is done: as §1

Sequence of Matrix metalloproteinase-9 (P14780 whole entry): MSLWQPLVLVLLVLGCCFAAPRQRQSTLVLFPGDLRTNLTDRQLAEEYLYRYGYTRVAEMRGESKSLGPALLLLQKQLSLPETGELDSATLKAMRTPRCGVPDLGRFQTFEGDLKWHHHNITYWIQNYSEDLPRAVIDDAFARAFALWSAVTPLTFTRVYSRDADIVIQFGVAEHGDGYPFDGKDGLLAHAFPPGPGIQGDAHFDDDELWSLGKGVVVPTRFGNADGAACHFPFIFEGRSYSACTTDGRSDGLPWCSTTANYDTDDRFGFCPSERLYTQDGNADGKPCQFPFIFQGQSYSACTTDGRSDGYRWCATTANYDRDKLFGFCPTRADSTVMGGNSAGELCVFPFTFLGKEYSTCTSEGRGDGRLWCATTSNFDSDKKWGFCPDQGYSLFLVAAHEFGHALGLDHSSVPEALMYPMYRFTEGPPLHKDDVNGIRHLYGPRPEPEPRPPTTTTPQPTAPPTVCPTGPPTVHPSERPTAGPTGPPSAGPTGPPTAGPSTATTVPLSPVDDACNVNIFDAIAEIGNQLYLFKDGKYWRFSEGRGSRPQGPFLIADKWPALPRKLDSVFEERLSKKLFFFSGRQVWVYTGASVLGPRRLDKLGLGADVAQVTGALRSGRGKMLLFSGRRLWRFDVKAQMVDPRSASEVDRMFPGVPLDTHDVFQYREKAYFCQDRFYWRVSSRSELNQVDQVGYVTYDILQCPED

As to `O=C(NO)C1(S(=O)(=O)c2ccc(Oc3ccccc3)cc2)CCN(C2CC2)CC1` [1-cyclopropyl-N-hydroxy-4-[(4-phenoxybenzene)sulfonyl]piperidine-4-carboxamide hydrochloride], the Ki (as a rule, a dissociation constant, usually derived from enzyme kinetics or from competition with a known ligand) in test [1] stood at 0.6 nM; in test [2], 0.2 nM; on Stromelysin-1, 0.3 nM.
As to `O=C(NO)C1(S(=O)(=O)c2ccc(Oc3ccc(Cl)cc3)cc2)CCOCC1` [4-{[4-(4-chlorophenoxy)benzene]sulfonyl}-N-hydroxyoxane-4-carboxamide], the Ki is < 0.1 nM in test [2] and 18.1 nM on Stromelysin-1.
Take `CS(=O)(=O)N1CCC(C(=O)NO)(S(=O)(=O)c2ccc(Oc3ccccc3)cc2)CC1` [N-hydroxy-1-methanesulfonyl-4-[(4-phenoxybenzene)sulfonyl]piperidine-4-carboxamide]: the Ki was found to be 1 nM in test [1], 0.5 nM on Collagenase 3, 0.3 nM in test [2] and 800 nM on Interstitial collagenase.
For `O=C(CS(=O)(=O)c1ccc(Oc2ccccc2)cc1)NO` [N-hydroxy-2-[(4-phenoxybenzene)sulfonyl]acetamide], the Ki came out at 5.1 nM on Collagenase 3, 2.6 nM in test [2] and 6600 nM at Interstitial collagenase.
Taken in the same sequence, the figures for `C=CCN1CCC(C(=O)NO)(S(=O)(=O)c2ccc(Sc3ccccc3)cc2)CC1` [N-hydroxy-4-{[4-(phenylsulfanyl)benzene]sulfonyl}-1-(prop-2-en-1-yl)piperidine-4-carboxamide hydrochloride] were 0.3 nM, 0.15 nM and > 10000 nM.
Take `CC(C)(C)OC(=O)N1CCC(CS(=O)(=O)c2ccc(Oc3ccccc3)cc2)(C(=O)NO)CC1` [tert-Butyl 4-[(Hydroxyamino)carbonyl]-4-{[(4-phenoxyphenyl)sulfonyl]methyl}piperidine-1-carboxylate]: the Ki on Collagenase 3 came to 0.2 nM; in test [2], 0.2 nM; on Interstitial collagenase (pH 7.5, 25 °C), 475 nM.
`CCN1CCC(C(=O)NO)(S(=O)(=O)c2ccc(Sc3ccccc3)cc2)CC1` [1-ethyl-N-hydroxy-4-{[4-(phenylsulfanyl)benzene]sulfonyl}piperidine-4-carboxamide hydrochloride]: the figures for the Ki (at Collagenase 3; in test [2]; at Interstitial collagenase) were 0.8 nM, 0.8 nM and > 10000 nM, respectively.
Take `CC(C)(C(=O)NO)S(=O)(=O)c1ccc(Oc2ccccc2)cc1` [N-hydroxy-2-methyl-2-[(4-phenoxybenzene)sulfonyl]propanamide]: the Ki on Collagenase 3 is 0.25 nM; in test [2], 0.1 nM; on Interstitial collagenase, 220 nM.
For `CC(=O)N1CCC(C(=O)NO)(S(=O)(=O)c2ccc(Oc3ccccc3)cc2)CC1` [1-Acetyl-N-hydroxy-4-{[4-(phenoxyphenyl]sulfonyl}-piperidine-4-carboxamide], the Ki at Collagenase 3 is < 0.1 nM; on Interstitial collagenase, 464 nM.
Regarding `CC(C)(C)OC(=O)N1CCC(C(=O)NO)(S(=O)(=O)c2ccc(Oc3ccccc3)cc2)CC1` [tert-butyl 4-(hydroxycarbamoyl)-4-[(4-phenoxybenzene)sulfonyl]piperidine-1-carboxylate], the Ki at Collagenase 3 came to 0.3 nM; in test [2] it was 0.2 nM; at Interstitial collagenase (pH 7.5, 25 °C) it was 1140 nM.
Taken in the same sequence, the figures for `O=C(NO)C1(S(=O)(=O)c2ccc(Oc3ccccc3)cc2)CCN(CC2CC2)CC1` [1-(Cyclopropylmethyl)-N-hydroxy-4-[(4-phenoxyphenyl)sulfonyl]piperidine-4-carboxamide Hydrochloride] were < 0.1 nM, < 0.1 nM and 770 nM.
For the compound `CN1CCC(C(=O)NO)(S(=O)(=O)c2ccc(Oc3ccccc3)cc2)CC1` [N-hydroxy-1-methyl-4-[(4-phenoxybenzene)sulfonyl]piperidine-4-carboxamide hydrochloride], the Ki is 0.29 nM in test [1]; 0.1 nM at Collagenase 3; < 0.1 nM in test [2]; 464 nM on Interstitial collagenase (pH 7.5, 25 °C).
